Laboratory results reported in ChEMBL document CHEMBL1144842, “Design and campaign synthesis of piperidine- and thiazole-based histone deacetylase inhibitors” (Bioorg Med Chem Lett, 2008).
pIC50: −log10 of the molar value. Activity calls are given as the source filed them. The calls are words filed in the database; no cut-off is given here.

Legend:
Histone deacetylase = test: Inhibition of human HDAC in HeLa cells; type: cell-based
Histone deacetylase 1 = Histone deacetylase 1 (Homo sapiens, UniProt Q13547); test: Inhibition of human recombinant HDAC1 expressed in Hi5 cells; set-up: species or system BTI-TN-5B1-4
HCT-116 = test: Antiproliferative activity against human HCT116 cells after 72 hrs by MTS assay; type: functional, cell-based; settings: HCT-116, 72 h
[1] = Lipophilicity, log D of the compound; settings: octanol/water
Cytochrome P450 3A4 = Cytochrome P450 3A4 (Homo sapiens, UniProt P08684)
Cytochrome P450 2D6 = Cytochrome P450 2D6 (Homo sapiens, UniProt P10635)
Cytochrome P450 2C9 = Cytochrome P450 2C9 (Homo sapiens, UniProt P11712)
Cytochrome P450 2C19 = Cytochrome P450 2C19 (Homo sapiens, UniProt P33261)
[2] = Half life in mouse at 70.9 umol/kg, po; type: ADME, organism-based; settings: in vivo
[3] = Solubility of the compound at pH 7.4; settings: buffer
[4] = Clearance in Han Wistar rat at 5 umol/kg, iv; type: ADME, organism-based; settings: in vivo
[5] = Half life in Han Wistar rat at 5 umol/kg, iv; type: ADME, organism-based; settings: in vivo
[6] = Volume of distribution in steady state in Han Wistar rat at 5 umol/kg, iv; type: ADME, organism-based; settings: in vivo, read-out: Vdss
[7] = Unbound ligand in Han Wistar rat plasma at 70.9 umol.kg, po; type: ADME, organism-based
[8] = Half life in Han Wistar rat at 70.9 umol/kg, po; type: ADME, organism-based; settings: in vivo
[9] = Unbound ligand in Han Wistar rat plasma at 10 umol/kg, po; type: ADME, organism-based
[10] = Unbound ligand in mouse plasma at 54.8 umol/kg, po; type: ADME, organism-based
[11] = Half life in Han Wistar rat at 10 umol/kg, po; type: ADME, organism-based; settings: in vivo
[12] = Half life in mouse at 54.8 umol/kg, po; type: ADME, organism-based; settings: in vivo
Homo sapiens = test: Antitumor activity against human A549a xenografted mouse at 12.5 mg/kg, po for 18 days; type: functional, organism-based; set-up: dose 12.5 mg/kg
[13] = Clearance in Han Wistar rat at 2.5 umol/kg, iv; type: ADME, organism-based; settings: in vivo
[14] = Clearance in mouse at 5 umol/kg, iv; type: ADME, organism-based; settings: in vivo
[15] = Clearance in Beagle dog at 0.8 umol/kg, iv; type: ADME, organism-based, Canis lupus familiaris; settings: in vivo
[16] = Half life in Han Wistar rat at 2.5 umol/kg, iv; type: ADME, organism-based; settings: in vivo
[17] = Half life in mouse at 5 umol/kg, iv; type: ADME, organism-based; settings: in vivo
[18] = Half life in Beagle dog at 0.8 umol/kg, iv; type: ADME, organism-based, Canis lupus familiaris; settings: in vivo
[19] = Volume of distribution in steady state in Han Wistar rat at 2.5 umol/kg, iv; type: ADME, organism-based; settings: in vivo, read-out: Vdss
[20] = Volume of distribution in steady state in mouse at 5 umol/kg, iv; type: ADME, organism-based; settings: in vivo, read-out: Vdss
[21] = Volume of distribution in steady state in Beagle dog at 0.8 umol/kg, iv; type: ADME, organism-based, Canis lupus familiaris; settings: in vivo, read-out: Vdss
[22] = Half life in Han Wistar rat at 54.8 umol/kg, po; type: ADME, organism-based; settings: in vivo
[23] = Half life in Beagle dog at 3 umol/kg, po; type: ADME, organism-based, Canis lupus familiaris; settings: in vivo
[24] = Unbound ligand in Han Wistar rat plasma at 54.8 umol/kg, po; type: ADME, organism-based; settings: at 54.8 µmol/kg
[25] = Unbound ligand in Beagle dog plasma at 3 umol/kg, po; type: ADME, organism-based, Canis lupus familiaris; settings: at 3 µmol/kg

Chain of Cytochrome P450 2D6 (P10635 whole entry): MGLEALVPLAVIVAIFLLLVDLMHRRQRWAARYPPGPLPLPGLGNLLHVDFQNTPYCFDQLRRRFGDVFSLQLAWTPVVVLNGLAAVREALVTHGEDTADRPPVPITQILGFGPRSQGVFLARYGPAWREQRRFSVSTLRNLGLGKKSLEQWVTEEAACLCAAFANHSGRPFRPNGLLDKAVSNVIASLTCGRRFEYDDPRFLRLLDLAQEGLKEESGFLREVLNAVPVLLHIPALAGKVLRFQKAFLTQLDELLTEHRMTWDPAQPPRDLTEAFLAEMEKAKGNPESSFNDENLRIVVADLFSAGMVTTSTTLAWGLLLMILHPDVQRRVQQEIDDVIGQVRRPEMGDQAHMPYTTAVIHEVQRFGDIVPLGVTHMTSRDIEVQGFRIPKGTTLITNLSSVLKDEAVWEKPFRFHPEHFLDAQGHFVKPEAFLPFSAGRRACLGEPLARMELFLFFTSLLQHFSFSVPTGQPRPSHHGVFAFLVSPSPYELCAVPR
Chain of Cytochrome P450 2C9 (P11712 whole entry): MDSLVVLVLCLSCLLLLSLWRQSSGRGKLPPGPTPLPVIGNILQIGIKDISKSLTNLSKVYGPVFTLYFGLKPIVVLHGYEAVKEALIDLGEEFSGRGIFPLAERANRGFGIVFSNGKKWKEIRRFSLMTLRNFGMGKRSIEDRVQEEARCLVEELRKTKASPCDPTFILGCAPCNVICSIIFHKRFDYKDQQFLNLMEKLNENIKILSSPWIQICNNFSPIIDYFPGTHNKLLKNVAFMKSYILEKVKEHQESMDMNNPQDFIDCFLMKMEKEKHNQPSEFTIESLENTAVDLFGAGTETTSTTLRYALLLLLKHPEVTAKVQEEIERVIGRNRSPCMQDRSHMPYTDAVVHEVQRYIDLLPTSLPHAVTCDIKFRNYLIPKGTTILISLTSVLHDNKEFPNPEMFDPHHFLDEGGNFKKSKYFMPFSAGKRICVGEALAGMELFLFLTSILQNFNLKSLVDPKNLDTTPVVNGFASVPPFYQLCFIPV
Chain of Histone deacetylase 1 (Q13547 whole entry): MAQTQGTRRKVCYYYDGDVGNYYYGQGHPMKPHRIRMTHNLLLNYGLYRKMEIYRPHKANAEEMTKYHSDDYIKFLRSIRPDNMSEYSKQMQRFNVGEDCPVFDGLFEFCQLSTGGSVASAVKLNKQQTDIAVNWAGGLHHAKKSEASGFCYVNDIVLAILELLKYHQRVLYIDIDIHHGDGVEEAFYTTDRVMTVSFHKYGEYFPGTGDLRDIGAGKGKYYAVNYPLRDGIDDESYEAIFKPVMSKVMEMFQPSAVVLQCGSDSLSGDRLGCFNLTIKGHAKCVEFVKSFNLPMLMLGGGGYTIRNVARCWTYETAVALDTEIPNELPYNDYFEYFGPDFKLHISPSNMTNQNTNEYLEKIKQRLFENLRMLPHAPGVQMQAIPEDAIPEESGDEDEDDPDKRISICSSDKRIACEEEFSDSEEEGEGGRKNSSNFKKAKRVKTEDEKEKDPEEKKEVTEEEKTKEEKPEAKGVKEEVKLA
Chain of Cytochrome P450 2C19 (P33261 whole entry): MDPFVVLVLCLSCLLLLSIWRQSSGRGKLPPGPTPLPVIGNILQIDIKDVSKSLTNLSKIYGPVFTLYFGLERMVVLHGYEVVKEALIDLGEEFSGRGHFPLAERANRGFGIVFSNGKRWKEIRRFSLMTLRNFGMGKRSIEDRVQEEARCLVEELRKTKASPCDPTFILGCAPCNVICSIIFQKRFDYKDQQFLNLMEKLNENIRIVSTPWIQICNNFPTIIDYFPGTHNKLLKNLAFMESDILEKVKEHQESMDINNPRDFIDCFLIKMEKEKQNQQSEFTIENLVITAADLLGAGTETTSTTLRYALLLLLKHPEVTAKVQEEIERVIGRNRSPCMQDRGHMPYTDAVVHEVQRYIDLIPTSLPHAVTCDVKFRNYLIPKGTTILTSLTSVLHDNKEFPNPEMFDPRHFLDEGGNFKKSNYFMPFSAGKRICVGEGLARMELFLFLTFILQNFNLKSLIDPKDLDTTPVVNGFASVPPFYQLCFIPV
Chain of Cytochrome P450 3A4 (P08684 whole entry): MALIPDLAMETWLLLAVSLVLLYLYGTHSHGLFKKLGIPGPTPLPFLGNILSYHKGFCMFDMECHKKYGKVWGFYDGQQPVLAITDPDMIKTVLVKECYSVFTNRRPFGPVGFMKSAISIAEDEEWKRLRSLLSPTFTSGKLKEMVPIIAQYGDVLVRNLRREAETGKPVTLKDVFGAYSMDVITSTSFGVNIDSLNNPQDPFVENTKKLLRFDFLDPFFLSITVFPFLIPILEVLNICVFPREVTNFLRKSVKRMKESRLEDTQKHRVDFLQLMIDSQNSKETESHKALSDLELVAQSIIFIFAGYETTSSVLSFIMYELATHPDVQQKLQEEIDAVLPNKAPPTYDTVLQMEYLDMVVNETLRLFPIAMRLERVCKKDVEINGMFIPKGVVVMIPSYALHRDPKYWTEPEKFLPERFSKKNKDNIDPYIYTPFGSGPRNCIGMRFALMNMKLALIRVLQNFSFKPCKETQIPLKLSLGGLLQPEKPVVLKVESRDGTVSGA

Row | SMILES | Log IC50 (Histone deacetylase) | pIC50 (Histone deacetylase 1) | pIC50 (HCT-116) | logD [1] | pIC50 (Cytochrome P450 3A4) | pIC50 (Cytochrome P450 2D6) | pIC50 (Cytochrome P450 2C9) | pIC50 (Cytochrome P450 2C19) | also measured
1 | Nc1ccccc1NC(=O)c1ccc(C2CCN(Cc3ccccc3)CC2)cc1 | -4.57 | 7.35 | 6.36 |  |  |  |  |  | 
2 | CN1CCC(c2ccc(C(=O)Nc3ccccc3N)cc2)CC1 | -5.23 | 6.86 | 6.08 | < 0.5 |  |  |  |  | 
3 | Nc1ccccc1NC(=O)c1ccc(N2CCOCC2)cc1 | -4.78 |  | 5.13 | 1.2 |  |  |  |  | 
4 | Nc1ccccc1NC(=O)c1ccc(-c2nccs2)cc1 |  |  | 5.74 |  |  |  |  |  | 
5 | CNC(=O)c1ccc(CN2CCC(c3ccc(C(=O)Nc4ccccc4N)cc3)CC2)cc1 |  | 7.51 | 6.36 | 1.99 | < 5.00 | < 5.00 | < 5.00 | < 5.00 | 
6 | CCNCc1cnc(-c2ccc(C(=O)Nc3ccccc3N)cc2)s1 |  | 7.42 | 6.69 |  |  |  |  |  | half-life [2]: 1.1 h; solubility [3]: > 500 µM; clearance [4]: 38 mL/min/kg; half-life [5]: 5.2 h; Vd [6]: 7.3 L/kg; fraction unbound [7]: 0.54; half-life [8]: 2.1 h
7 | Nc1ccccc1NC(=O)c1ccc(N2CCN(Cc3ccccc3)CC2)cc1 | -4.44 |  | 5.63 |  |  |  |  |  | 
8 | Nc1ccccc1NC(=O)c1ccc(-c2ncc(CN3CCCCC3)s2)cc1 |  | 7.66 | 6.84 |  |  |  |  |  | 
9 | CN(C)C(=O)c1ccc(CN2CCC(c3ccc(C(=O)Nc4ccccc4N)cc3)CC2)cc1 |  | 7.07 | 6.32 | 1.53 | < 5.00 | < 5.00 | < 5.00 | < 5.00 | clearance [4]: 49 mL/min/kg; half-life [5]: 1.6 h; Vd [6]: 3.1 L/kg; fraction unbound [9]: 0.28; fraction unbound [10]: 0.4; half-life [11]: 2.1 h; half-life [12]: 3.8 h
10 | Nc1ccccc1NC(=O)c1ccc(C2CCN(CCC(=O)Nc3ccccc3F)CC2)cc1 |  | 7.17 | 6.52 | 2.76 | 5.00 | 5.00 | 5.00 | 5.00 | 
11 | Nc1ccccc1NC(=O)c1ccc(C2CCN(Cc3ccc(C(=O)NC4CC4)cc3)CC2)cc1 |  | 7.24 | 6.38 | 2.31 | < 5.00 | < 5.00 | < 5.00 | < 5.00 | 
12 | CCNC(=O)c1ccc(CN2CCC(c3ccc(C(=O)Nc4ccccc4N)cc3)CC2)cc1 |  | 7.46 | 6.44 |  |  |  |  |  | Activity (Homo sapiens): Active; clearance [13]: 16 mL/min/kg; clearance [14]: 36 mL/min/kg; clearance [15]: 7 mL/min/kg; half-life [16]: 1.7 h; half-life [17]: 4.8 h; half-life [18]: 10.2 h; Vd [19]: 3.5 L/kg; Vd [20]: 5 L/kg; Vd [21]: 4.2 L/kg; half-life [22]: 3.7 h; half-life [23]: 7.2 h; fraction unbound [24]: 0.21; fraction unbound [25]: 0.33; half-life [12]: 3.2 h
13 | CCCNCc1cnc(-c2ccc(C(=O)Nc3ccccc3N)cc2)s1 |  | 7.56 | 6.73 |  |  |  |  |  | solubility [3]: > 500 µM
